Measured values: patent publication US20170114021A1, “HALOGEN-SUBSTITUTED COMPOUNDS” (priority 2014, published 2017)

Assays:
Assay type in all cases: in vivo
Rhipicephalus sanguineus = Rhipicephalus sanguineus in vitro contact test; settings: application rate 5 μg/cm^2; adult dog ticks; after 48 h
Description: Rhipicephalus sanguineus—In Vitro Contact Tests
(§1) For the coating of the test tubes, 9 mg of active compound are first dissolved in 1 ml of acetone p.a. and then diluted to the desired concentration with acetone p.a. 250 μl of the solution are distributed homogeneously on the inner walls and the base of a 25 ml test tube by turning and rocking on an orbital shaker (rocking rotation at 30 rpm for 2 h). With 900 ppm active compound solution and internal surface 44.7 cm^2, given homogeneous distribution, an area-based dose of 5 μg/cm^2 is achieved.
After the solvent has evaporated off, the tubes are populated with 5-10 adult dog ticks (Rhipicephalus sanguineus), sealed with a perforated plastic lid and incubated in a horizontal position in the dark at room temperature and ambient humidity. After 48 h, efficacy is determined. To this end, the ticks are knocked to the floor of the tube and incubated on a hotplate at 45-50° C. for not more than 5 min. Ticks which remain motionless on the floor or move in such an uncoordinated manner that they are unable to deliberately avoid the heat by climbing upwards are considered to be dead or moribund.
An efficacy of 100% means that all the ticks were dead or moribund. 0% efficacy means that none of the ticks had been harmed.

Tetranychus urticae = Tetranychus urticae spray test, OP-resistant (TETRUR); settings: application rate 100 g/ha; bean leaf discs; after 6 days
Description: Tetranychus urticae—Spray Test, OP-Resistant (TETRUR) Solvent: 78.0 parts by weight of acetone • • 1.5 parts by weight of dimethylformamide Emulsifier: alkylaryl polyglycol ether
(§2) To produce a suitable preparation of active compound, 1 part by weight of active compound is dissolved using the specified parts by weight of solvent and made up with water containing an emulsifier concentration of 1000 ppm until the desired concentration is attained. To produce further test concentrations, the preparation is diluted with emulsifier-containing water.
Discs of bean leaves (Phaseolus vulgaris) infested by all stages of the greenhouse red spider mite (Tetranychus urticae) are sprayed with an active ingredient formulation of the desired concentration.
After 6 days, efficacy in % is determined. 100% means that all the spider mites have been killed; 0% means that no spider mites have been killed.

Musca domestica = Musca domestica test (MUSCDO); settings: application rate 20 ppm; adult houseflies; after 2 days
Description: Musca domestica-Test (MUSCDO) Solvent: dimethyl sulphoxide
(§3) To produce a suitable preparation of active compound, 10 mg of active compound are mixed with 0.5 ml of dimethyl sulphoxide, and the concentrate is diluted with water to the desired concentration.
Vessels containing a sponge treated with sugar solution and the active compound preparation of the desired concentration are populated with 10 adult houseflies (Musca domestica).
After 2 days, the kill in % is determined. 100% means that all of the flies have been killed; 0% means that none of the flies have been killed.

Boophilus microplus = Boophilus microplus injection test (BOOPMI Inj); settings: application rate 4 μg/animal; injection into abdomen
Description: Boophilus microplus—Injection Test (BOOPMI Inj) Solvent: dimethyl sulphoxide
To produce a suitable preparation of active compound, 10 mg of active compound are mixed with 0.5 ml of solvent and the concentrate is diluted with solvent to the desired concentration.
1 μl of the active compound solution is injected into the abdomen of 5 engorged adult female cattle ticks (Boophilus microplus). The animals are transferred into dishes and kept in a climate-controlled room.
The activity is assessed after the desired time by laying of fertile eggs. Eggs which are not visibly fertile are stored in a climate-controlled cabinet until the larvae hatch after about 42 days. An efficacy of 100% means that none of the ticks has laid any fertile eggs; 0% means that all the eggs are fertile.

Ctenocephalides felis = Ctenocephalides felis in vitro contact test; settings: application rate 5 μg/cm^2; adult cat fleas; after 48 h
Description: Ctenocephalides felis—In Vitro Contact Test
as §1
After the solvent has evaporated off, the tubes are populated with 5-10 adult cat fleas (Ctenocephalides felis), sealed with a perforated plastic lid and incubated in a horizontal position at room temperature and ambient humidity. After 48 h, efficacy is determined. To this end, the test tubes are stood upright and the fleas are knocked to the base of the tube. Fleas which remain motionless at the base or move in an uncoordinated manner are considered to be dead or moribund.
100% efficacy means that all the fleas were dead or moribund. 0% efficacy means that no fleas were harmed.

[1] = test system: Boophilus microplus Parkhurst strain, SP-resistant; test: Boophilus microplus dip test (BOOPMI Dip); settings: application rate 20 ppm; engorged adult female cattle ticks; after 7 days
Description: Boophilus microplus—Dip Test (BOOPMI Dip) Test animals: cattle ticks (Boophilus microplus) Parkhurst strain, SP-resistant Solvent: dimethyl sulphoxide
10 mg of active compound are dissolved in 0.5 ml of dimethyl sulphoxide. To produce a suitable formulation, the active compound solution is diluted with water to the concentration desired in each case.
This active compound preparation is pipetted into tubes. 8-10 engorged adult female cattle ticks (Boophilus microplus) are transferred into a further tube with holes. The tube is immersed into the active compound preparation, and all the ticks are completely wetted. After the liquid has run out, the ticks are transferred on filter discs into plastic dishes and stored in a climate-controlled room.
Efficacy is assessed after 7 days by laying of fertile eggs. Eggs which are not visibly fertile are stored in a climate-controlled cabinet until the larvae hatch after about 42 days. An efficacy of 100% means that none of the ticks has laid any fertile eggs; 0% means that all the eggs are fertile.

Lucilia cuprina = Lucilia cuprina test (LUCICU); settings: application rate 20 ppm; L1 larvae; after 2 days
Description: Lucilia cuprina-Test (LUCICU) Solvent: dimethyl sulphoxide
as §3
About 20 L1 larvae of the Australian sheep blowfly (Lucilia cuprina) are transferred into a test vessel containing minced horsemeat and the active compound preparation of the desired concentration.
After 2 days, the kill in % is determined. 100% means that all the larvae have been killed; 0% means that no larvae have been killed.

Myzus persicae = Myzus persicae spray test (MYZUPE); settings: application rate 100 g/ha; Chinese cabbage leaf discs; after 6 days
Description: Myzus persicae—Spray Test (MYZUPE) Solvent: 78 parts by weight of acetone • • 1.5 parts by weight of dimethylformamide Emulsifier: alkylaryl polyglycol ether
as §2
Discs of Chinese cabbage leaves (Brassica pekinensis) infested by all stages of the green peach aphid (Myzus persicae) are sprayed with an active compound preparation of the desired concentration.
After 6 days, efficacy in % is determined. 100% means that all the aphids have been killed; 0% means that no aphids have been killed.

Amblyomma hebraeum = test: Amblyomma hebaraeum test (AMBYHE), tick nymph immersion; settings: application rate 20 ppm; tick nymphs; after 42 days
Description: Amblyomma hebaraeum Test (AMBYHE) Solvent: dimethyl sulphoxide
as §3
Tick nymphs (Amblyomma hebraeum) are placed into perforated plastic beakers and immersed in the desired concentration for one minute. The ticks are transferred on filter paper into a Petri dish and stored in a climate-controlled cabinet.
After 42 days, the kill in % is determined. 100% means that all of the ticks have been killed; 0% means that none of the ticks have been killed.

Substance: N-{2-fluoro-5-[2′-methyl-5′-(pentafluoroethyl)-4′-(trifluoromethyl)-2′H-1,3′-bipyrazol-4-yl]benzyl}propanamide [Ic-1]
- efficacy (Rhipicephalus sanguineus): 100%
- efficacy (Tetranychus urticae): 100%
- efficacy (kill) (Musca domestica): 100%
- efficacy (laying of fertile eggs) (Boophilus microplus): 100%
- efficacy (Ctenocephalides felis): 100%
- efficacy (laying of fertile eggs) [1]: 100%
- efficacy (kill) (Lucilia cuprina): 100%
- efficacy (Myzus persicae): 90%
- efficacy (kill) (Amblyomma hebraeum): 100%
